Data on two compounds can be found in patent US20180015051A1, “MODULATORS OF ALPHA-DICARBONYL DETOXIFICATION AND THEIR USE FOR THE TREATMENT OF DIABETIC PATHOLOGIES” (Buck Institute for Research on Aging, priority 2016, published 2018).

For test [1] the following is noted: mice and humans; Gomes and Negrato (2014); cited from earlier work.
For a further test, the target named is T1, TRPA1 (RAT) (Rattus norvegicus, UniProt Q6RI86).
T1 construct: expressed in transfected cells; host or cells: HEK293T
Briefly: Calcium imaging of HEK293T cells (Rhod-3 AM), rat TRPA1. In kind it is cell-based. As to conditions: HEK293T transfected with rat TRPA1 and GFP; 100 pM or 1 mM MGO. As for the experimental part:
(§1) Appropriate HEK293T-derived cells were seeded on collagen-coated glass bottom culture dishes (MatTek Corporation). Cells were loaded with 10 pM of Rhod-3 AM (Life Technology) for 30 min at 37° C. After 30 min they were washed twice with standard Tyrode's solution (135 mM NaCl, 4 mM KCl, 10 mM glucose, 10 mM HEPES, 2 mM CaCl2, and 1 mM MgCl2 at pH=7.4) at room temperature. Calcium imaging was performed on an Olympus BX51WI Axiovert microscope under a 60× objective. Fluorescent images were documented upon sequential excitation with 555 nm followed by 484 nm with a Roper CoolSnap CCD camera. After establishing a baseline 555/484 ratio, methylglyoxal or other agonists were diluted with Tyrode's solution (100 pM or 1 mM final concentration) and were perfused into cells. Images were processed with the MetaFlour (Olympus) software.

In the next test the test system is GLOD-4/GLO1. Briefly: Glod-4p::gfp expression assay. In kind it is in vivo, Caenorhabditis elegans. As to conditions: EV, skn-1, or trpa-1 RNAi; MGO (7 mM) vs water. As for the experimental part: Transgenic adult animals carrying glod-4p::gfp were assayed. Fluorescent intensity was calculated by background subtraction and quantified for the same region of interest across individual animals. All quantification was done using Image J™ software (//imagei.nih.gov/ii/).

For another test, the system named is native HEK293T cells. Briefly: Calcium imaging of native HEK293T cells (GFP only). It is filed as cell-based. As for the experimental part:
as §1

Structures are written as SMILES.

T1 sequence (Q6RI86 whole entry): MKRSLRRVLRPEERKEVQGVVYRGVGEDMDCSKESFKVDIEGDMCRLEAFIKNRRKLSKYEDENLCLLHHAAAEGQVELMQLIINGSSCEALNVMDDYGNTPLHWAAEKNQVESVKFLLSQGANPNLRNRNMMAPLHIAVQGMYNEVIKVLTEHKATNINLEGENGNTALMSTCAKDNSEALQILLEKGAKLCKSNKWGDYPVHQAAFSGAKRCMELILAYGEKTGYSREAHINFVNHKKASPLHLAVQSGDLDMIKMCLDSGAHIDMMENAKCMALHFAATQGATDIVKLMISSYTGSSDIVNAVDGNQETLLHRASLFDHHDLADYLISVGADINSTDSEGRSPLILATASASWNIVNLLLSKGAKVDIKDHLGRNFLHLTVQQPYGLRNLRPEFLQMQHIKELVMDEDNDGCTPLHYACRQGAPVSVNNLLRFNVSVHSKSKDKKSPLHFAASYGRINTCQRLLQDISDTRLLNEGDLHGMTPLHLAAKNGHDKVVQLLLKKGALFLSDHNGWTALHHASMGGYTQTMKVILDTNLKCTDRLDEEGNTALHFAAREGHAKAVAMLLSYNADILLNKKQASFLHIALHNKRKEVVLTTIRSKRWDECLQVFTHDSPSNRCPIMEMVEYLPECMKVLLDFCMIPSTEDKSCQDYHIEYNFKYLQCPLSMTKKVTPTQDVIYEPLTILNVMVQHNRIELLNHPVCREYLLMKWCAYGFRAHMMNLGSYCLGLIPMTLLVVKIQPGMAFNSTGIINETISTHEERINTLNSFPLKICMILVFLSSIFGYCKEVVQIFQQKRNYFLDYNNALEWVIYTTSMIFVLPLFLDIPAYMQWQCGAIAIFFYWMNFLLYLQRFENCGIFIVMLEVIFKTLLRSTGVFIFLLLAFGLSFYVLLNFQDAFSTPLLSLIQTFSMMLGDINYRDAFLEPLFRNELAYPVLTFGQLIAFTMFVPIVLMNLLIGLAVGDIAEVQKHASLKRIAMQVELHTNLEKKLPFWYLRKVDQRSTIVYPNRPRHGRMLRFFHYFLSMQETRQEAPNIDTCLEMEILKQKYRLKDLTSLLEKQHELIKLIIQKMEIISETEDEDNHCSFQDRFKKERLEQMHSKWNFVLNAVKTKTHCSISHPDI

In the case of `O=C(O)CCCCC1CCSS1` (stereo not shown) [LA, a-lipoic acid], in test [1], the “Effect on diabetic complications” value is listed as “documented to ameliorate diabetic complications”.
Turning to `CC(=O)C=O` [MGO, methylglyoxal], the “Ca2+ flux (Rhod-3 AM fluorescence ratio 555/484 nm)” value on TRPA1 (RAT) was “induce a similar Ca^2+ flux”. Further, in the test on GLOD-4/GLO1, the “glod-4p::gfp reporter expression (GFP intensity)” value is “trpa-1- and skn-1 -dependent increase in expression”. The “Ca2+ flux in native HEK293T cells (Rhod-3 AM)” value in the test with native HEK293T cells is “neither compounds resulted in Ca^+2 flux”.
